Here are results for 1 molecule from patent US20060004095A1, “Use of acetyl L-carnitine for the preparation of a medicine for the treatment of neuropathic pain in diabetic patients” (priority 2004, published 2006).

Assay [1] deals with patients with type 2 diabetes not on insulin treatment. The assay can be described thus: Double-blind placebo-controlled clinical trials in diabetic peripheral neuropathy, VAS pain assessment; population not on insulin. In kind it is in vivo, human. The conditions noted are these: active only at the higher dose (3 g/day). On the procedure:
(§1) Two double-blind placebo-controlled clinical trials, identical in their experimental design, were conducted in patients with diagnoses of diabetic peripheral neuropathy selected according to the criteria established in the San Antonio, Tex. conference (Diabetes 37:1000-1004, 1988).
(§2) Acetyl L-carnitine was administered orally at doses of 1.5 g/day and 3.0 g/day for continuously for 52 weeks.
(§3) One objective of the studies consisted in the possible modification of the Visual Analogue Scale (VAS) (Scott J. Huskisson EC. Graphic representation of pain. Pain 1976;2:175-184) in the subjective assessment of pain symptoms and the main sensorimotor clinical parameters.

Assay [2] deals with patients with type 2 diabetes on insulin treatment. The assay can be described thus: Double-blind placebo-controlled clinical trials in diabetic peripheral neuropathy, VAS pain assessment; population on insulin. In kind it is in vivo, human. As to conditions: even at the higher dose. The procedure:
as §1, §2, §3
The second population comprised patients with type 2 diabetes treated with insulin. Here, too, the population included a placebo group (Group 4) matching up to the same inclusion criteria as the patients treated with acetyl L-carnitine (on insulin treatment).

For assay [3], the system named is type I and II diabetics with symmetrical distal polyneuropathy or multineuropathy. The conditions noted are these: patients treated with acetyl L-carnitine out of 333 recruited; cited from earlier work.

In the case of `CC(=O)O[C@H](CC(=O)[O-])C[N+](C)(C)C` [Acetyl L-carnitine, acetyl L-carnitine], the “activity compared to the placebo group at the end of treatment” value in assay [1] is on record as “active in a dose-related manner”. Further, the “activity compared to the control group” value in assay [2] is “no statistically significant difference in activity”. The “patients presenting an improvement in pain symptoms” value in assay [3] is 39%.
